The values below come from patent publication US12264156B2, “Compounds and pharmaceutical compositions thereof for the treatment of diseases” (GALAPAGOS NV, priority 2018, dated 2025).

Holding throughout (assay type): biochemical
Holding throughout (conditions): ADP-Glo SIK kinase assay

Assay [1] addresses T1, SIK3 (Homo sapiens, UniProt Q9Y2K2).
T1 construct: purchased SignalChem S12-11G-100
Briefly: ADP-Glo kinase assay, SIK3. In a few lines:
(§1)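 ADP-Glo, RT throughout. Enz/substrate + ATP, 120 min; ADP-Glo reagent 40 min (ATP depletion); detection reagent 30 min; luminescence read. Neg ctrl 1% DMSO, pos ctrl 10 μM staurosporine, final concs.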

The target in assay [2] is T2, SIK1 (Homo sapiens, UniProt P57059).
T2 construct: purchased Carna Biosciences 02-131
Briefly: ADP-Glo kinase assay, SIK1. In outline: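 Enzyme–substrate mix was started with ATP and incubated 120 min at RT. ADP formed was quantified by ADP-Glo: 40 min ATP depletion, then 30 min detection reagent converting ADP to ATP for luciferase luminescence, which rises with kinase activity. Controls: 1% DMSO and 10 μM staurosporine (final).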

The target of assay [3] is T3, SIK2 (Homo sapiens, UniProt Q9H0K1).
T3 construct: purchased ThermoFisher Scientific PV4792
As to the kind of experiment: ADP-Glo kinase assay, SIK2. In outline: as §1

T3 sequence (Q9H0K1 whole entry): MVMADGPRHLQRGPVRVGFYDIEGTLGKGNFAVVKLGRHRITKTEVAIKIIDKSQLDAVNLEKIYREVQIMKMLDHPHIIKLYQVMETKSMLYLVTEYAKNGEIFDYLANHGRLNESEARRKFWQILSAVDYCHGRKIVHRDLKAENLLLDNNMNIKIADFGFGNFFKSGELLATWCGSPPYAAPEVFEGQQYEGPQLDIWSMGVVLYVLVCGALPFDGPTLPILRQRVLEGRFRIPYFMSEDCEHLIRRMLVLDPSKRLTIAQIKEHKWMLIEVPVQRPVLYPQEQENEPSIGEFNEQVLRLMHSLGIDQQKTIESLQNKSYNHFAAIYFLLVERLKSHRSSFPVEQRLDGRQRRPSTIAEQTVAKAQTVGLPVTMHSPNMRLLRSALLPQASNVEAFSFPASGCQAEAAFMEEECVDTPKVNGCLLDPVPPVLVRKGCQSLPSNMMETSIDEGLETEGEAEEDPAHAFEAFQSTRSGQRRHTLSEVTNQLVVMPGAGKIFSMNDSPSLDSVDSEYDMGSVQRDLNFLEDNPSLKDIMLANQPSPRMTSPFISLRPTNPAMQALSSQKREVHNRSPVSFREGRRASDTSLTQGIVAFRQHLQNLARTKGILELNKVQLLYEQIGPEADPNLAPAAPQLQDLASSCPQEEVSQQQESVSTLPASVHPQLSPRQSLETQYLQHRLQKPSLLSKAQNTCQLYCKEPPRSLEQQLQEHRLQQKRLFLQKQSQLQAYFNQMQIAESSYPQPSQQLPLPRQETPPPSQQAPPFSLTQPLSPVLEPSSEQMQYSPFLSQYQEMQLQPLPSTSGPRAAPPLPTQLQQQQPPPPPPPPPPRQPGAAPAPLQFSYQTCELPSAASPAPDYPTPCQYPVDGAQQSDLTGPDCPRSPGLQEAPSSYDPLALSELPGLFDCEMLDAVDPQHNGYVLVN
T2 sequence (P57059 whole entry): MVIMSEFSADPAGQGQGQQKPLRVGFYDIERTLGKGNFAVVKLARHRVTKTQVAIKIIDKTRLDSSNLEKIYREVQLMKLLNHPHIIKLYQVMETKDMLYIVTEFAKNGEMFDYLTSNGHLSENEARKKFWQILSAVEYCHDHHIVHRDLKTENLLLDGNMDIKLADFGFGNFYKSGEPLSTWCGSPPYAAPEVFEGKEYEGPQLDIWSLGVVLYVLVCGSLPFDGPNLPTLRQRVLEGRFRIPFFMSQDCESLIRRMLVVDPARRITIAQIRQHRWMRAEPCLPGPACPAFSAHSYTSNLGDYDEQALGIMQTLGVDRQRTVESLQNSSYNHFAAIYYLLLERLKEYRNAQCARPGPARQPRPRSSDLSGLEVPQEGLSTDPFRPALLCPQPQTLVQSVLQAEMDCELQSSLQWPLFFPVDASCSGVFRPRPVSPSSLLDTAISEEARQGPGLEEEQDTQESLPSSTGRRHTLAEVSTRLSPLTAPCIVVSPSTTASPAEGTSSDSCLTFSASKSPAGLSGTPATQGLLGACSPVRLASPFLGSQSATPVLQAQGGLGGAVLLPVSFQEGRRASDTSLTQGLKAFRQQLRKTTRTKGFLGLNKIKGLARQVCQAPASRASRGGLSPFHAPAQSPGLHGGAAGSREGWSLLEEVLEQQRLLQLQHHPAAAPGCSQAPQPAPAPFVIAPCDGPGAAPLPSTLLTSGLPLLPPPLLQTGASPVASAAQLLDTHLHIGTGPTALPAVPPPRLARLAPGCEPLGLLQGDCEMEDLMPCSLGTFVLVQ
T1 sequence (Q9Y2K2 whole entry): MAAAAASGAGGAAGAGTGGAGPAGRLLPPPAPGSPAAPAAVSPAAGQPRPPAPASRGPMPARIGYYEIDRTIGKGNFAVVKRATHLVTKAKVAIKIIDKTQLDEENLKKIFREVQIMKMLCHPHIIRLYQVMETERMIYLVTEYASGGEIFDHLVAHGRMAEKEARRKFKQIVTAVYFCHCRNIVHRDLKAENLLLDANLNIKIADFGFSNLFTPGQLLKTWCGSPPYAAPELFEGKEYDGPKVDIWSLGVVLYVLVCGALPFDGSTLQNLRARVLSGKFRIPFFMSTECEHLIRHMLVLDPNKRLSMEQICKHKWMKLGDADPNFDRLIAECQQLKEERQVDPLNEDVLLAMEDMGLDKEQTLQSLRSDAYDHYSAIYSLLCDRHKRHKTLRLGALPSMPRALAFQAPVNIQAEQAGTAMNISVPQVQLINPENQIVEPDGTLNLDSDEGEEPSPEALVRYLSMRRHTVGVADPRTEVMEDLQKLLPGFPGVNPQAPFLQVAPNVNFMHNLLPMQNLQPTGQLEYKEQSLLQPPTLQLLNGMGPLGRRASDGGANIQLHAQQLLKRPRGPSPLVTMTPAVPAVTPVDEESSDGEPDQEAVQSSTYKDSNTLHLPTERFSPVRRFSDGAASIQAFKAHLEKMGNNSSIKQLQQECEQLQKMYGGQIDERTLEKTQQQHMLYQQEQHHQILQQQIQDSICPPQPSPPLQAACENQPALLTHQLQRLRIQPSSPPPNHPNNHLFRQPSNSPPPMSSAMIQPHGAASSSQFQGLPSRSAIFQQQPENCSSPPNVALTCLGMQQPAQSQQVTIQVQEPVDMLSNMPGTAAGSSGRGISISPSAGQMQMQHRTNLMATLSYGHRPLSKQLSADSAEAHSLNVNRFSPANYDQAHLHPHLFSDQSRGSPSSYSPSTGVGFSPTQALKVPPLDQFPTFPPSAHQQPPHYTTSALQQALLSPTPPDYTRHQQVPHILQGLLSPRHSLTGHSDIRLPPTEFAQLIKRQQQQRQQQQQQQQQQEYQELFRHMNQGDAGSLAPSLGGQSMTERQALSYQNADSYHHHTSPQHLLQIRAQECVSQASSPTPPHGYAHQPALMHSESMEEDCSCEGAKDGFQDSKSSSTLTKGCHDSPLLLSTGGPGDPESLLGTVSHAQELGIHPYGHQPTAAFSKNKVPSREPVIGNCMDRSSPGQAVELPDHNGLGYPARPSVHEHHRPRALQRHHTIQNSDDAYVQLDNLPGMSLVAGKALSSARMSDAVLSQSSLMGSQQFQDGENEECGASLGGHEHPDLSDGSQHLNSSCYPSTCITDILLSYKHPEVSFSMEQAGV

For `COc1cc(-c2cnc3cc(OCC4CCCCN4CC(F)F)ccn23)cc(OC(F)F)c1C(=O)NC1CC1` (stereo not drawn) [compound 149, N-cyclopropyl-4-[7-[[1-(2,2-difluoroethyl)-2-piperidyl]methoxy]imidazo [1,2-a]pyridin-3-yl]-2-(difluoromethoxy)-6-methoxy-benzamide], the IC50 lay in the range of 0.01 to 10 nM in assay [1], 10 to 100 nM in assay [2] and 10 to 100 nM in assay [3].

Regarding `COc1cc(-c2cnc3cc(OCCN4CCCC(F)(F)C4)ccn23)cc(OC(F)F)c1C(=O)NC1CC1` [compound 211, N-cyclopropyl-2-(difluoromethoxy)-4-[7-[2-(3,3-difluoro-1-piperidyl)ethoxy]imidazo [1,2-a]pyridin-3-yl]-6-methoxy-benzamide], the IC50 in assay [1], in assay [2] and in assay [3] was 0.01 to 10 nM throughout.

Regarding `COc1cc(-c2cnc3cc(OCCN4CCOCC4C#N)ccn23)cc(OC(F)F)c1C(=O)NC1CC1` (stereo not drawn) [compound 178, 4-[7-[2-(3-cyanomorpholin-4-yl)ethoxy]imidazo[1,2-a]pyridin-3-yl]-N-cyclopropyl-2-(difluoromethoxy)-6-methoxy-benzamide], the IC50 in assay [1] is 0.01 to 10 nM; in assay [2], 10 to 100 nM; in assay [3] it was 0.01 to 10 nM.

With `COc1cc(-c2cnc3cc(OCCN4CCCC(C#N)C4)ccn23)cc(OC(F)F)c1C(=O)NC1CC1` (stereo not drawn) [compound 216, 4-[7-[2-(3-cyano-1-piperidyl)ethoxy]imidazo [1,2-a]pyridin-3-yl]-N-cyclopropyl-2-(difluoromethoxy)-6-methoxy-benzamide], the IC50 in assay [1], in assay [2] and in assay [3] was 0.01 to 10 nM in each case.

With `COc1cc(-c2cnc3cc(OCCC#N)ccn23)cc(OC(F)F)c1C(=O)NC1CC1` [compound 31, 4-[7-(2-cyanoethoxy)imidazo[1,2-a]pyridin-3-yl]-N-cyclopropyl-2-(difluoromethoxy)-6-methoxy-benzamide], the IC50 in assay [1], in assay [2] and in assay [3] was greater than 500 nM throughout.

On to `COc1cc(-c2cnc3cc(OCC(C)(C)N(C)C)ccn23)cc(OC(F)F)c1C(=O)NC1CC1` [compound 106, N-cyclopropyl-2-(difluoromethoxy)-4-[7-[2-(dimethylamino)-2-methyl-propoxy]imidazo[1,2-a]pyridin-3-yl]-6-methoxy-benzamide], for which the results for the IC50 in assay [1], in assay [2] and in assay [3] were 10 to 100 nM, greater than 500 nM and 10 to 100 nM, respectively.

In the case of `COc1cc(-c2cnc3cc(OCC4CN(C)CCO4)ccn23)cc(OC(F)F)c1C(=O)NC1CC1` (stereo not drawn) [compound 82, N-cyclopropyl-2-(difluoromethoxy)-6-methoxy-4-[7-[(4-methylmorpholin-2-yl)methoxy]imidazo[1,2-a]pyridin-3-yl]benzamide], the figures for the IC50 in assay [1], in assay [2] and in assay [3] were 0.01 to 10 nM, 10 to 100 nM and 0.01 to 10 nM, respectively.

With `CCOC(=O)CN1CCCCC1COc1ccn2c(-c3cc(OC)c(C(=O)NC4CC4)c(OC(F)F)c3)cnc2c1` (stereo not drawn) [Cpd 397, ethyl 2-[2-[[3-[4-(cyclopropylcarbamoyl)-3-(difluoromethoxy)-5-methoxy-phenyl]imidazo[1,2-a]pyridin-7-yl]oxymethyl]-1-piperidyl]acetate], the IC50 was in the range of 0.01 to 10 nM in assay [1], 10 to 100 nM in assay [2] and 10 to 100 nM in assay [3].

In the case of `COc1cc(-c2cnc3cc(OC4COC4)ccn23)cc(OC(F)F)c1C(=O)NC1CC1` [compound 152, N-cyclopropyl-2-(difluoromethoxy)-6-methoxy-4-[7-(oxetan-3-yloxy)imidazo[1,2-a]pyridin-3-yl]benzamide], the IC50 is 0.01 to 10 nM in assay [1], 10 to 100 nM in assay [2] and 10 to 100 nM in assay [3].

As for `COc1cc(-c2cnc3cc(OCCOCCN(C)C)ccn23)cc(OC(F)F)c1C(=O)NC1CC1` [compound 65, N-cyclopropyl-2-(difluoromethoxy)-4-[7-[2-[2-(dimethylamino)ethoxy]ethoxy]imidazo[1,2-a]pyridin-3-yl]-6-methoxy-benzamide], the IC50 in assay [1], in assay [2] and in assay [3] was 0.01 to 10 nM each time.

Regarding `COc1cc(-c2cnc3cc(OCCN4CCOC(C)(C)C4)ccn23)cc(OC(F)F)c1C(=O)NC1CC1` [compound 194, N-cyclopropyl-2-(difluoromethoxy)-4-[7-[2-(2,2-dimethylmorpholin-4-yl)ethoxy]imidazo[1,2-a]pyridin-3-yl]-6-methoxy-benzamide], the results for the IC50 in assay [1], in assay [2] and in assay [3] were 0.01 to 10 nM, 10 to 100 nM and 0.01 to 10 nM, respectively.

`COc1cc(-c2cnc3cc(OCCO)ccn23)cc2c1C(=O)N(CC(F)(F)F)CC2` [Cpd 258, 6-[7-(2-hydroxyethoxy)imidazo [1,2-a]pyridin-3-yl]-8-methoxy-2-(2,2,2-trifluoroethyl)-3,4-dihydroisoquinolin-1-one]: the results for the IC50 in assay [1], in assay [2] and in assay [3] were 0.01 to 10 nM, 100 to 500 nM and 10 to 100 nM, respectively.

`COc1cc(-c2cnc3cc(Oc4ccccn4)ccn23)cc(OC(F)F)c1C(=O)NC1CC1` [compound 145, N-cyclopropyl-2-(difluoromethoxy)-6-methoxy-4-[7-(2-pyridyloxy)imidazo[1,2-a]pyridin-3-yl]benzamide]: the IC50 lay in the range of 10 to 100 nM in assay [1], 100 to 500 nM in assay [2] and 10 to 100 nM in assay [3].

`COc1cc(-c2cnc3cc(OC4CN(C)C4)ccn23)cc(OC(F)F)c1C(=O)NC1CC1` [compound 29, N-cyclopropyl-2-(difluoromethoxy)-6-methoxy-4-[7-(1-methylazetidin-3-yl)oxyimidazo[1,2-a]pyridin-3-yl]benzamide]: the IC50 in assay [1] was in the range of 10 to 100 nM; in assay [2], 100 to 500 nM; in assay [3] it was 10 to 100 nM.

As to `O=C1c2ncc(-c3cnc4cc(OCCN5CCOCC5)ccn34)cc2CN1CC(F)(F)F` [Cpd 266, 3-[7-(2-morpholinoethoxy)imidazo [1,2-a]pyridin-3-yl]-6-(2,2,2-trifluoroethyl)-5H-pyrrolo[3,4-b]pyridin-7-one], the IC50 in assay [1], in assay [2] and in assay [3] was greater than 500 nM each time.

`COc1cc(-c2cnc3cc(OCC4CCN(C)CC4)ccn23)cc(OC(F)F)c1C(=O)NC1CC1` [compound 25, N-cyclopropyl-2-(difluoromethoxy)-6-methoxy-4-[7-[(1-methyl-4-piperidyl)methoxy]imidazo[1,2-a]pyridin-3-yl]benzamide]: the IC50 in assay [1], in assay [2] and in assay [3] was 0.01 to 10 nM each time.

As for `COc1cc(-c2cnc3cc(OCC4CC4(F)F)ccn23)cc(OC(F)F)c1C(=O)NC1CC1` (stereo not drawn) [compound 42, N-cyclopropyl-4-[7-[(2,2-difluorocyclopropyl)methoxy]imidazo[1,2-a]pyridin-3-yl]-2-(difluoromethoxy)-6-methoxy-benzamide], the IC50 in assay [1], in assay [2] and in assay [3] was 0.01 to 10 nM throughout.

Turning to `COc1cc(-c2cnc3cc(OCC4CCC(=O)N4)ccn23)cc(OC(F)F)c1C(=O)NC1CC1` (stereo not drawn) [compound 99, N-cyclopropyl-2-(difluoromethoxy)-6-methoxy-4-[7-[(5-oxopyrrolidin-2-yl)methoxy]imidazo[1,2-a]pyridin-3-yl]benzamide], the IC50 in assay [1], in assay [2] and in assay [3] was 0.01 to 10 nM throughout.
